Usually EC50 stands for the concentration giving half of the maximal effect.

6 compounds from patent US20050065099A1, “Treatment of mitochondrial diseases” (priority 2003, published 2005) can be followed below.

Test [1] relates to Male C57/BL6 mice. The test is described as follows: MPTP animal model (neurobehavioral outcome). It is filed as in vivo. The following applies: 30 mg/kg/day ip; for functional deficit produced by MPTP: days 1-3; for functional outcome versus vehicle treated animals: days 1 and 2, comparable to negative control group. As to the method:
In vivo evaluation is carried out using mice that have been treated with 1-methyl-4-phenyl-1,2,3,6-tetrahydropyridine (MPTP), a neurotoxin. […] In a number of species, including humans, […] and rodents, MPTP produces an irreversible and severe parkinsonian syndrome which includes virtually all the clinical features of the disease.
Male C57/BL6 mice (Harlan, Ind.), weight 25-30 g, were used in all studies. MPTP-HCl (Sigma) was administered i.p. according to one of the following protocols. The maximum volume which was given per injection is 200 μL. In all studies, animals were euthanized with carbon dioxide and, brains were removed for subsequent determination of dopamine depletion where appropriate.
Animals received 25 mg/kg of MPTP once a day for 5 consecutive days. The end point was 2 days after the final dose.
Animals received 4×20 mg/kg of MPTP at 2 hour intervals. The end point was at either 7 or 14 days.
Animals received 2×40 mg/kg of MPTP with this repeated 16 hours later. The end point was at either 14 or 28 days.
Animals received 25 mg/kg of MPTP, given twice weekly for 5 weeks. The end point was either 1, 3 or 24 weeks after the final dose.
Compound efficacy was examined with the use of neurobehavioral models. These models allowed the determination of a given compound's ability to reverse the motor deficits seen with MPTP treatment.
All animals received pre-training for the individual model and a baseline reading was obtained one day prior to the commencement of MPTP treatment.
The open field test was carried out in a clear, acrylic open box 60 cm×60 cm. The base of the box was marked into a 5×5 grid of […] squares. Animals were individually placed in the box and allowed to roam free. The number of squares an animal crossed in a 90 second time period was recorded. In order to be scored, the animal must either have had all four limbs within a given square or, all four limbs must have left a given square.
A tactile stimulus (0.5×0.5 cm square of “sticky tape”) was applied to each side of the animal's face and the time taken to remove it is recorded. The following measurements were recorded: • a. Latency to contact left side tape • b. Latency to contact right side tape • c. Order of side contacted (left vs. right) • d. Latency to remove left side tape • e. Latency to remove right side tape Pole Test
A rough surfaced metal pole (diameter 8 mm, height 50 cm) protruding from a cage filled with animal bedding was used for this test. Animals were placed head upwards at the top of the pole. They were required to turn and descend face downwards and the time taken for this was recorded (latency to reach bedding). Timing was started when the individual animal gripped the top of the pole and was stopped when all four limbs contacted the bedding.
All test compounds were administered ip. The maximum volume which was given per injection was 200 μL. Compounds were dosed up to twice daily, two days prior and 7 days post MPTP treatment.
A baseline reading was taken for each animal one day prior to MPTP treatment. All subsequent readings were normalized to the individual animal's baseline. Values were expressed as a percent baseline.
Data was percent baseline and expressed as mean±std dev: […]
Compound and vehicle given for 9 days in total, 2 days prior to MPTP and 7 days after MPTP treatment. L-DOPA given 1 hour prior to the pole test, each day.

Test [2] has as its system dopaminergic neuronal cell line. The test can be described thus: High glutamate-induced oxidative stress assay (HGOS). To be noted: Mus musculus; 30 mM glutamate, 16 hrs, Cell Tracker Green; read-out: EC50 for protection against HGOS cell injury and cell death. It is filed as cell-based. An excerpt:
Protection against redox stress can be further evaluated in cell culture using high glutamate induced oxidative stress (HGOS) in mouse dopaminergic cell lines. The cytotoxic effect of glutamate is not due to excitotoxicity, as this cell line is devoid of inotropic glutamate receptors. Rather, the glutamate-induced toxicity of dopaminergic cells is associated with an inhibition of cystine transport which subsequently leads to depletion of intracellular glutathione (GSH) levels (Murphy T. H., et al. Neuron 2, 1547-1558, 1989), activation of neuronal 12-lipoxygenase (Li, Y. et al., Neuron 19,453-463, 1997), increased ROS production (Tan S. et al., J. Cell Biol. 141, 1423-1432, 1998) and elevated intracellular Ca^2+ (Li, Y. et al., see supra). Some molecules were measured for their ability to protect such cells against glutamate-induced stress and the assay is detailed in Examples.
This procedure was used to induce high glutamate-induced oxidative stress (HGOS) in a dopaminergic neuronal cell line. Using this assay the potency and efficacy of test articles against HGOS neuronal cell injury and cell death was established in a high throughput manner.
The cells were seeded into 96-well plates at a density of 2000 per well and left to grow for 72 hours in a 33° C. incubator with 5% CO2 in air atmosphere. The passage number of the cells for each assay experiment were no later than p11 in order to minimize experimental variation.
All compounds were dissolved in DMEM-No Glu containing 1 mM glucose, 30 mM glutamate and 1× Pen/Strep. DMEM-No Glu with 1 mM glucose and 1×P/S was used as the negative control, DMEM-No Glucose with 1 mM glucose, […] was used as a positive control and 100 μM Glutathione was added to the positive control as a standard. All of the procedures for this involving the making and dilution of compounds were performed using aseptic conditions and with minimal light.
The plates were removed from the incubator and examined under the microscope for morphological appearance and density. Using an aseptic technique and an 8-channel aspirator the media was carefully removed from the cells and replaced with 200 μl of 1×HBSS. This was done as quickly as possible to prevent the cells drying out. The plates were then placed in the humidified 37° C. incubators of the Biomek 2000 Side Loader. Four plates were washed at a time so as to minimize the time that the cells were sitting in 1×HBSS prior to addition of the compound test solution.
The Beckman Biomek workstations were used to load the compounds and controls from the mother plates onto the cell plates that were prewashed with HBSS under sterile conditions. The plates were incubated in the upper HTS incubator at 37° C. in 5% CO2 for exactly 16 hrs. The following day, using the Beckman Biomek workstations, the plates were removed from the incubator. Using Cell Tracker Addition, the compounds were removed from the plates, washed once with […] of pre-warmed 1×HBSS and then 100 μL of 5 μM Cell Tracker Green was added to each well. The plates were incubated at 37° C. for 30 min to allow the dye to enter the cell and be cleaved by the esterases. After washing the cells twice with prewarmed 1×HBSS, the plates were read with the 485 excitation; 538 emission filter pair on a Fluoroskan.

Test [3] has as its system FRDA fibroblasts. The test is described as follows: FRDA fibroblast assay for protection from oxidative stress. In kind it is cell-based. The following applies: Homo sapiens, 24 h preincubation, 1 mM BSO, compared to untreated FRDA fibroblasts, read-out: EC50 for reduction of cell death in FRDA fibroblasts. An excerpt:
A cellular assay using FRDA-patient derived fibroblasts (as described by Jauslin, M L et al, Human Molecular Genetics 11; 3055-3063 (2002)); is used to determine the cell protecting effect of the test compounds by analyzing survival of dermal fibroblasts taken from FRDA patients and unaffected normal donors under conditions of partial GSH depletion. Exposure of FRDA fibroblasts to BSO (L-buthionine (S,R)-sulfoximine) under conditions of restricted selenium causes depletion of cellular glutathione (GSH) and severe plasma membrane damage leading to cell death. Preincubation with the test compounds before the addition of BSO is used to determine if they can protect FRDA cells from BSO-mediated cell death.
Primary fibroblasts were derived from donors with a molecular diagnosis of FRDA and control donors with no mitochondrial disease. Lines F2, C2 and C3 were obtained from Coriell Cell Repositories (Camden, N.J., USA; catalog #'s GM04078, GM 08402 and GM08399, respectively). All cell types were diagnosed at the molecular level for intronic GAA triplet repeat length in the trataxin gene using a PCR-based method, according to methods known in the art. […] The cells were seeded in microtiter plates at a density of 4000 cells per 100 μl in growth medium consisting of 25% (v/v) M199 EBS and 64% (v/v) MEM EBS without phenol red (Bioconcept, Allschwil, Switzerland) supplemented with 10% (v/v) fetal calf serum (PAA Laboratories, Linz, Austria), 100 U/ml penicillin, 100 μg/ml streptomycin (PAA Laboratories, Linz, Austria), 10 μg/ml insulin (Sigma, Buchs, Switzerland), 10 μg/ml EGF (Sigma, Buchs, Switzerland), 10 μg/ml bFGF (PreproTech, Rocky Hill, N.J., USA) and 2 mM glutamine (Sigma, Buchs, Switzerland). The cells were incubated in the presence of the various test compounds for 24 h before addition of 1 mM BSO (L-buthionine (S,R)-sulfoximine).
Cell viability was measured after the first signs of toxicity appeared in the BSO-treated controls (typically after 16-48 h). The cells were stained for 60 min at room temperature in PBS with 1.2 μm calceinAM and 4 μm ethidium homodimer (Live/Dead assay, Molecular Probes, Eugene, Oreg., USA). Fluorescence intensity was measured with a Gemini Spectramax XS spectrofluorimeter (Molecular Devices, Sunnyvale, Calif., USA) using excitation and emission wavelengths of 485 and 525 nm, respectively.

Consider `COC(=O)CSCc1c(O)c(C)c(C)c2c1CCC(C)(C)O2` [(6-Hydroxy-2,2,7,8-tetramethyl-chroman-5-ylmethylsulfanyl)-acetic acid methyl ester], for which, in test [1], the “functional deficit produced by MPTP” value is recorded as “significantly reduced” and the “functional outcome versus vehicle treated animals” value is “significantly better”. For the same compound, the EC50 in test [2] is no more than 5 µM.
For the compound `Cc1c(O)cc2c(c1C)OC(C)(C)C=C2` [2,2,7,8-Tetramethyl-2H-chromen-6-ol], the EC50 in test [3] lay within 0.01 to 6 µM. In addition, in test [1], the “functional deficit produced by MPTP” value is listed as “significantly reduced” and the “functional outcome versus vehicle treated animals” value is on record as “significantly better”.
As to `Cc1cc(O)cc2c1OC(C)(CCC(=O)O)CC2` (centres unmarked) [3-(6-Hydroxy-2,8-dimethyl-chroman-2-yl)-propionic acid], the concentration giving a half-maximal response (EC50) in test [3] is 0.01 to 6 µM. Besides, in test [1], the “functional deficit produced by MPTP” value is listed as “significantly reduced” and the “functional outcome versus vehicle treated animals” value is recorded as “significantly better”.
Consider `COC(=O)CCC1(C)CCc2c(Br)c(O)c(C)c(C)c2O1` (centres unmarked) [3-(5-Bromo-6-hydroxy-2,7,8-trimethyl-chroman-2-yl)-propionic acid methyl ester], for which the 50% effective concentration (EC50) in test [3] is 0.01 to 6 µM. Besides, in test [1], the “functional deficit produced by MPTP” value is recorded as “significantly reduced” and the “functional outcome versus vehicle treated animals” value is “significantly better”. The EC50 in test [2] was no more than 5 µM.
`CC(C)=CCc1c(O)c(C)c(C)c2c1CCC(C)(CCC(=O)O)O2` (centres unmarked) [3-[6-Hydroxy-2,7,8-trimethyl-5-(3-methyl-but-2-enyl)-chroman-2-yl]-propionic acid]: in test [1], the “functional deficit produced by MPTP” value was “significantly reduced” and the “functional outcome versus vehicle treated animals” value was “significantly better”.
In the same order, the values of `CC(C)=CCc1c(O)c(C)c(C)c2c1CCC(C)(C)O2` [2,2,7,8-Tetramethyl-5-(3-methyl-but-2-enyl)-chroman-6-ol] are “significantly reduced” and “significantly better”.
